Experimental data as given in ChEMBL document CHEMBL1201862, “PubChem BioAssay data set” (2004).
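These data come from cells grown in 96-well plates and exposed to compound for 48 hours at five concentrations. The concentration for 50% growth inhibition is given as GI50.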 The source made the active and inactive calls. Rule as the data show it: active = GI50 up to about 1.1 µM and inactive = higher.

Experiments:
Assay in all cases: DTP human tumour cell line panel, 48 h
MDA-MB-231 = test system: MDA-MB-231
MDA-MB-435 = test system: MDA-MB-435
SN12C = test system: SN12C
CCRF-CEM = test system: CCRF-CEM
Malme-3M = test system: Malme-3M
MOLT-4 = test system: MOLT-4
HOP-92 = test system: HOP-92
UO-31 = test system: UO-31
SW-620 = test system: SW-620
COLO 205 = test system: COLO 205
SK-OV-3 = test system: SK-OV-3
RXF 393 = test system: RXF 393
SNB-19 = test system: SNB-19
RPMI-8226 = test system: RPMI-8226
SF-295 = test system: SF-295
SK-MEL-2 = test system: SK-MEL-2
U-251 = test system: U-251
NCI-H522 = test system: NCI-H522
EKVX = test system: EKVX

Structure (SMILES)	GI50 (MDA-MB-231)	GI50 (MDA-MB-435)	GI50 (SN12C)	GI50 (CCRF-CEM)	GI50 (Malme-3M)	GI50 (MOLT-4)	GI50 (HOP-92)	GI50 (UO-31)	GI50 (SW-620)	GI50 (COLO 205)	GI50 (SK-OV-3)	GI50 (RXF 393)	GI50 (SNB-19)	GI50 (RPMI-8226)	GI50 (SF-295)	GI50 (SK-MEL-2)	GI50 (U-251)	GI50 (NCI-H522)	GI50 (EKVX)
C=C(C(=O)O[C@H]1C(=O)C2=C(C)CCC3C(=C)C(=O)O[C@@H]3C2[C@]1(C)O)C1CC[C@]2(C)CCCC(=C)[C@H]2C1 (stereo not given in full)	5.78 µM (inactive)	3.35 µM (inactive)	2.48 µM (inactive)	< 0.01 µM (active)	8.83 µM (inactive)	2.21 µM (inactive)	5.08 µM (inactive)	6.34 µM (inactive)	7.46 µM (inactive)	8.77 µM (inactive)	16.9 µM (inactive)	0.0246 µM (active)	13.1 µM (inactive)	3.46 µM (inactive)	15.5 µM (inactive)	8.45 µM (inactive)	4.94 µM (inactive)	3.53 µM (inactive)	7.98 µM (inactive)
CC(C)OC(=S)Nc1ccc(Cl)c(/C=N/OC(C)(C)C)c1	14.9 µM (inactive)	18 µM (inactive)	16.7 µM (inactive)	15.9 µM (inactive)	16.7 µM (inactive)	15.6 µM (inactive)	12.2 µM (inactive)	13.9 µM (inactive)	16.6 µM (inactive)	17.1 µM (inactive)	19.8 µM (inactive)	14.5 µM (inactive)	20.7 µM (inactive)	18.1 µM (inactive)	13.5 µM (inactive)	18.5 µM (inactive)	17.1 µM (inactive)	15.7 µM (inactive)	15.4 µM (inactive)
COc1cc(/C=C2/SC(c3ccccc3)N(c3cccc([N+](=O)[O-])c3)C2=O)cc(OC)c1OC (stereo not given)	> 100 µM (inactive)	26.9 µM (inactive)	> 100 µM (inactive)	22.2 µM (inactive)	82.8 µM (inactive)	> 100 µM (inactive)	> 100 µM (inactive)	> 100 µM (inactive)	74.5 µM (inactive)	> 100 µM (inactive)	> 100 µM (inactive)	> 100 µM (inactive)	> 100 µM (inactive)	> 100 µM (inactive)	> 100 µM (inactive)	> 100 µM (inactive)	> 100 µM (inactive)	60.5 µM (inactive)	> 100 µM (inactive)
CCNc1cc2c3c(c1)CCN3CCC2	> 10 µM (inactive)	> 10 µM (inactive)	> 10 µM (inactive)	4.2 µM (inactive)	> 10 µM (inactive)	> 10 µM (inactive)	> 10 µM (inactive)	> 10 µM (inactive)	6.3 µM (inactive)	> 10 µM (inactive)	> 10 µM (inactive)	> 10 µM (inactive)	> 10 µM (inactive)	3.51 µM (inactive)	> 10 µM (inactive)	> 10 µM (inactive)	> 10 µM (inactive)	5.98 µM (inactive)	5.86 µM (inactive)
NNC(=O)Cc1cccnc1	> 100 µM (inactive)	> 100 µM (inactive)	> 100 µM (inactive)	> 100 µM (inactive)	> 100 µM (inactive)	> 100 µM (inactive)	> 100 µM (inactive)	> 100 µM (inactive)	> 100 µM (inactive)	> 100 µM (inactive)	> 100 µM (inactive)	> 100 µM (inactive)	> 100 µM (inactive)	> 100 µM (inactive)	> 100 µM (inactive)	> 100 µM (inactive)	> 100 µM (inactive)	> 100 µM (inactive)	> 100 µM (inactive)
CC[C@@]1(CCC(=O)NCCc2c[nH]c3ccccc23)CCC(=O)N2CCc3c([nH]c4ccccc34)[C@H]21	40.7 µM (inactive)	7.36 µM (inactive)	39.5 µM (inactive)	7.33 µM (inactive)	5.35 µM (inactive)	3.71 µM (inactive)	79.3 µM (inactive)	22.9 µM (inactive)	25.8 µM (inactive)	24.2 µM (inactive)	36.2 µM (inactive)	6.12 µM (inactive)	9.71 µM (inactive)	3.08 µM (inactive)	5.13 µM (inactive)	17.1 µM (inactive)	29.8 µM (inactive)	3.9 µM (inactive)	12.2 µM (inactive)
CCOC(=O)NC(OCCN(C)C)(C(F)(F)F)C(F)(F)F	> 100 µM (inactive)	> 100 µM (inactive)	> 100 µM (inactive)	> 100 µM (inactive)	> 100 µM (inactive)	> 100 µM (inactive)	> 100 µM (inactive)	> 100 µM (inactive)	> 100 µM (inactive)	> 100 µM (inactive)	> 100 µM (inactive)	9.79 µM (inactive)	> 100 µM (inactive)	> 100 µM (inactive)	> 100 µM (inactive)	> 100 µM (inactive)	> 100 µM (inactive)	> 100 µM (inactive)	> 100 µM (inactive)
O=c1[nH]c2nc[nH]c2c(=O)n1C1CCCCC1	> 100 µM (inactive)	> 100 µM (inactive)	> 100 µM (inactive)	> 100 µM (inactive)	> 100 µM (inactive)	> 100 µM (inactive)	> 100 µM (inactive)	> 100 µM (inactive)	> 100 µM (inactive)	> 100 µM (inactive)	> 100 µM (inactive)	> 100 µM (inactive)	> 100 µM (inactive)	> 100 µM (inactive)	> 100 µM (inactive)	72.9 µM (inactive)	> 100 µM (inactive)	> 100 µM (inactive)	> 100 µM (inactive)
COCOC1/C=C/CCCCC(=O)C(C)C#CC1 (stereo not given)	4.73 µM (inactive)	5.52 µM (inactive)	6.27 µM (inactive)	1.87 µM (inactive)	1.98 µM (inactive)	2.09 µM (inactive)	3.1 µM (inactive)	5.7 µM (inactive)	1.89 µM (inactive)	2.51 µM (inactive)	15.8 µM (inactive)	3.06 µM (inactive)	17.8 µM (inactive)	1.46 µM (inactive)	16.6 µM (inactive)	5.81 µM (inactive)	14.4 µM (inactive)	1.53 µM (inactive)	9.86 µM (inactive)
C=CCN1C(=O)/C(=C/c2ccc(OC)cc2)N=C1SC/C=C/C	57.8 µM (inactive)	33.3 µM (inactive)	19.5 µM (inactive)	26.4 µM (inactive)	34.8 µM (inactive)	20.3 µM (inactive)	24 µM (inactive)	32.1 µM (inactive)	35.4 µM (inactive)	29.2 µM (inactive)	> 100 µM (inactive)	16.6 µM (inactive)	34.4 µM (inactive)	26.2 µM (inactive)	41.3 µM (inactive)	31.5 µM (inactive)	35.1 µM (inactive)	28.1 µM (inactive)	33.5 µM (inactive)
